Experimental findings from patent US8153809B2, “Dihydropyridone ureas as P2X7 modulators” (Roche Palo Alto LLC, priority 2008, dated 2012) are described below.

The target of this assay is T1, P2X7 (UniProt Q99572).
T1 sequence (Q99572 1-595): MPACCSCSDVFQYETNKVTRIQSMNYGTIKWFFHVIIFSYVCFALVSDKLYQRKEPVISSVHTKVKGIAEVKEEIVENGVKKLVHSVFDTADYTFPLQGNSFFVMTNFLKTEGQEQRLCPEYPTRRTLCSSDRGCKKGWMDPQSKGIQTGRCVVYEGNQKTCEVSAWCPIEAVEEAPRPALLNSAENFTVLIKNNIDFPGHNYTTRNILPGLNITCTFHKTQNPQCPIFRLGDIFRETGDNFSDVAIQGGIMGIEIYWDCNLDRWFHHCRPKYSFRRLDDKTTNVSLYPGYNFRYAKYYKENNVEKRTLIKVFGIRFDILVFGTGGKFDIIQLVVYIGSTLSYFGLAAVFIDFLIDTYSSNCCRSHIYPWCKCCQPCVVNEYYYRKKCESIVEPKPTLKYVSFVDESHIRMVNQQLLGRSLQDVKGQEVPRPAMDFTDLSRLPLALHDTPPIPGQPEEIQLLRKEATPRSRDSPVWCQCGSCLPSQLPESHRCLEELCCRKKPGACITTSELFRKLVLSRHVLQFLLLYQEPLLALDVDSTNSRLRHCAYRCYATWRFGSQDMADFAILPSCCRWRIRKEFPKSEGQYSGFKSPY
Description: pIC50 values for P2X7 (Table 1). It is filed as cell-based. The method, boiled down:
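Fluo-3-loaded 1321N1 cells expressing human P2X7 or HEK293 cells expressing rat P2X7, preincubated 20 min at room temperature with antagonist in HBSS/Hepes/probenecid buffer with 2 mM CaCl2. BzATP agonist at 100 μM final (human) or 5 μM final (rat); fluorescence read 5 min, peak normalized to 5 μM ionomycin response.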
For `Cn1ccc2ccc(NC(=O)N3C=CC(=O)CC3c3ccc(F)cc3)cc21` (stereo not drawn) [Compound 52, 2-(4-Fluoro-phenyl)-4-oxo-3,4-dihydro-2H-pyridine-1-carboxylic acid (1-methyl-1H-indol-6-yl)-amide], the pIC50 – broadly, the negative decadic logarithm of the IC50, by convention in mol/L – was determined as 7.065.

Regarding `CS(=O)(=O)CCCOc1cc(NC(=O)N2C=CC(=O)C[C@H]2c2ccc(F)cc2)c(Br)cc1Cl` [Compound 54, (S)-2-(4-Fluoro-phenyl)-4-oxo-3,4-dihydro-2H-pyridine-1-carboxylic acid [2-bromo-4-chloro-5-(3-methanesulfonyl-propoxy)-phenyl]-amide], the pIC50 is listed as 6.38.

For `COc1cc(NC(=O)N2C=CC(=O)C[C@H]2c2cccc(F)c2)ccc1C` [Compound 70, (S)-2-(3-Fluoro-phenyl)-4-oxo-3,4-dihydro-2H-pyridine-1-carboxylic acid (3-methoxy-4-methyl-phenyl)-amide], the negative logarithm of the IC50 (pIC50) is 6.84.

`COc1cc(NC(=O)N2C=CC(=O)C[C@H]2c2cc(F)cc(F)c2)c(Br)cc1C` (stereo in doubt) [Compound 47, 2-(3,5-Difluoro-phenyl)-4-oxo-3,4-dihydro-2H-pyridine-1-carboxylic acid (2-bromo-5-methoxy-4-methyl-phenyl)-amide] yielded a pIC50 of 6.987.

As for `Cc1c2ccc(NC(=O)N3C=CC(=O)C[C@H]3c3ccc(F)cc3)c(Br)c2nn1C` [Compound 151, (S)-2-(4-Fluoro-phenyl)-4-oxo-3,4-dihydro-2H-pyridine-1-carboxylic acid (7-bromo-2,3-dimethyl-2H-indazol-6-yl)-amide], the pIC50 is 5.975.

`O=C1C=CN(C(=O)Nc2ccsc2Br)C(c2ccc(F)cc2)C1` (stereo not drawn) [Compound 86, 2-(4-Fluoro-phenyl)-4-oxo-3,4-dihydro-2H-pyridine-1-carboxylic acid (2-bromo-thiophen-3-yl)-amide] returned a pIC50 of 6.725.

`COc1cc(Br)c(CNC(=O)N2C=CC(=O)CC2c2ccc(F)cc2)cc1OC` (stereo not drawn) [Compound 75, 2-(4-Fluoro-phenyl)-4-oxo-3,4-dihydro-2H-pyridine-1-carboxylic acid 2-bromo-4,5-dimethoxy-benzylamide] yielded a negative-log IC50 (pIC50) of 5.075.

`COc1cc(NC(=O)N2C=CC(=O)CC2c2ccccc2)c(Br)cc1Cl` (stereo not drawn) [Compound 2, 4-Oxo-2-phenyl-3,4-dihydro-2H-pyridine-1-carboxylic acid (2-bromo-4-chloro-5-methoxy-phenyl)-amide] returned a pIC50 of 6.425.

Consider `Cc1cccc(NC(=O)N2C=CC(=O)C[C@H]2c2ccc(F)cc2)c1` [Compound 130, (S)-2-(4-Fluoro-phenyl)-4-oxo-3,4-dihydro-2H-pyridine-1-carboxylic acid m-tolylamide], for which the pIC50 is 7.12.

Take `Cc1c(CCO)cccc1NC(=O)N1C=CC(=O)C[C@H]1c1ccc(F)cc1` [Compound 150, (S)-2-(4-Fluoro-phenyl)-4-oxo-3,4-dihydro-2H-pyridine-1-carboxylic acid [3-(2-hydroxy-ethyl)-2-methyl-phenyl]-amide]: the pIC50 was 7.835.

As for `COc1cc(NC(=O)N2C=CC(=O)CC2c2cccnc2)c(Br)cc1C` (stereo not drawn) [Compound 20, 4-Oxo-3,4-dihydro-2H-[2,3′]bipyridinyl-1-carboxylic acid (2-bromo-5-methoxy-4-methyl-phenyl)-amide], the pIC50 was 5.995.

Turning to `Cc1nn(C)c2cc(NC(=O)N3C=CC(=O)C[C@H]3c3ccc(F)cc3)ccc12` [Compound 145, (S)-2-(4-Fluoro-phenyl)-4-oxo-3,4-dihydro-2H-pyridine-1-carboxylic acid (1,3-dimethyl-1H-indazol-6-yl)-amide], the negative logarithm of the IC50 (pIC50) was found to be 6.535.

On to `O=C1C=CN(C(=O)Nc2cc(CO)c(Cl)cc2Br)[C@H](c2ccc(F)cc2)C1` [Compound 98, (S)-2-(4-Fluoro-phenyl)-4-oxo-3,4-dihydro-2H-pyridine-1-carboxylic acid (2-bromo-4-chloro-5-hydroxymethyl-phenyl)-amide], for which the pIC50 was 7.475.

`CCc1cc(OC)c(OC)cc1NC(=O)N1C=CC(=O)C[C@H]1c1ccc(F)cc1` [Compound 87, (S)-2-(4-Fluoro-phenyl)-4-oxo-3,4-dihydro-2H-pyridine-1-carboxylic acid (2-ethyl-4,5-dimethoxy-phenyl)-amide] gave a pIC50 of 8.36.

In the case of `COc1cc(NC(=O)N2C=CC(=O)C[C@H]2c2ccc(F)c(F)c2)c(Br)cc1C` [Compound 81, (S)-2-(3,4-Difluoro-phenyl)-4-oxo-3,4-dihydro-2H-pyridine-1-carboxylic acid (2-bromo-5-methoxy-4-methyl-phenyl)-amide], the pIC50 was 7.54.

On to `COc1cc(NC(=O)N2C=CC(=O)C[C@H]2c2ccc(F)cc2)c(F)cc1Cl` [Compound 35, (S)-2-(4-Fluoro-phenyl)-4-oxo-3,4-dihydro-2H-pyridine-1-carboxylic acid (4-chloro-2-fluoro-5-methoxy-phenyl)-amide], for which the pIC50 was found to be 7.195.

`COc1cc(NC(=O)N2C=CC(=O)C[C@H]2c2ccc(F)cc2)c(Cl)cc1Cl` [Compound 7, (S)-2-(4-Fluoro-phenyl)-4-oxo-3,4-dihydro-2H-pyridine-1-carboxylic acid (2,4-dichloro-5-methoxy-phenyl)-amide] yielded a pIC50 of 6.73.

`COc1cc(NC(=O)N2C=CC(=O)C[C@H]2c2cccc(F)c2)ccc1Cl` [Compound 72, (S)-2-(3-Fluoro-phenyl)-4-oxo-3,4-dihydro-2H-pyridine-1-carboxylic acid (4-chloro-3-methoxy-phenyl)-amide] showed a pIC50 of 6.295.

As for `O=C1C=CN(C(=O)Nc2cc(Cl)c(Cl)cc2Br)[C@H](c2ccc(F)cc2)C1` [Compound 9, (S)-2-(4-Fluoro-phenyl)-4-oxo-3,4-dihydro-2H-pyridine-1-carboxylic acid (2-bromo-4,5-dichloro-phenyl)-amide], the pIC50 stood at 6.11.

Take `O=C(O)COc1cc(NC(=O)N2C=CC(=O)C[C@H]2c2ccc(F)cc2)c(Br)cc1Cl` [Compound 32, (4-Bromo-2-chloro-5-{[(S)-2-(4-fluoro-phenyl)-4-oxo-3,4-dihydro-2H-pyridine-1-carbonyl]-amino}-phenoxy)-acetic acid]: the pIC50 is listed as 5.365.

The compound `O=C1C=CN(C(=O)Nc2ccc3ncccc3c2Br)[C@H](c2ccc(F)cc2)C1` [Compound 106, (S)-2-(4-Fluoro-phenyl)-4-oxo-3,4-dihydro-2H-pyridine-1-carboxylic acid (5-bromo-quinolin-6-yl)-amide] showed a pIC50 of 7.785.

In turn, `C[S@@+]([O-])c1cc(NC(=O)N2C=CC(=O)C[C@H]2c2ccc(F)cc2)c(Br)cc1Cl` [Compound 16, (S)-2-(4-Fluoro-phenyl)-4-oxo-3,4-dihydro-2H-pyridine-1-carboxylic acid [2-bromo-4-chloro-5-((R)-methanesulfinyl)-phenyl]-amide] came in with a pIC50 of 6.623.

In the case of `Cc1cc(Br)c(NC(=O)N2C=CC(=O)C[C@H]2c2ccc(F)cc2)cc1C#N` [Compound 48, (S)-2-(4-Fluoro-phenyl)-4-oxo-3,4-dihydro-2H-pyridine-1-carboxylic acid (2-bromo-5-cyano-4-methyl-phenyl)-amide], the pIC50 worked out at 6.84.

For the compound `O=C1C=CN(C(=O)Nc2cc(OCCO)c(Cl)cc2Br)[C@H](c2cccc(F)c2)C1` [Compound 50, (S)-2-(3-Fluoro-phenyl)-4-oxo-3,4-dihydro-2H-pyridine-1-carboxylic acid [2-bromo-4-chloro-5-(2-hydroxy-ethoxy)-phenyl]-amide], the pIC50 came out at 7.407.

`O=C1C=CN(C(=O)Nc2cc(O)c(Cl)cc2Br)[C@H](c2ccc(F)cc2)C1` [Compound 24, (S)-2-(4-Fluoro-phenyl)-4-oxo-3,4-dihydro-2H-pyridine-1-carboxylic acid (2-bromo-4-chloro-5-hydroxy-phenyl)-amide]: the pIC50 is 6.71.

`COc1cc(NC(=O)N2C=CC(=O)C[C@H]2c2ccc(F)cc2)c(C(C)C)cc1OC` [Compound 13, (S)-2-(4-Fluoro-phenyl)-4-oxo-3,4-dihydro-2H-pyridine-1-carboxylic acid (2-isopropyl-4,5-dimethoxy-phenyl)-amide] came in with a pIC50 of 6.66. The pIC50 values of the last two compounds are within 0.2 log units of each other.

As to `CN(C)C(=O)COc1cc(NC(=O)N2C=CC(=O)C[C@H]2c2ccc(F)cc2)c(Br)cc1Cl` [Compound 120, (S)-2-(4-Fluoro-phenyl)-4-oxo-3,4-dihydro-2H-pyridine-1-carboxylic acid (2-bromo-4-chloro-5-dimethylcarbamoylmethoxy-phenyl)-amide], the pIC50 was determined as 6.95.
